Experimental data from patent US20030171306A1, “Cancer treatment method” (priority 2002, published 2003).
Counter-ions that a name gives are not always drawn.

Assays:
[1] = tested on: multiple stage neutrophil progenitors; test: CD15 neutrophil antigen cell-based ELISA (CELISA); conditions: for CD15 signal from the cell cultures with increasing concentrations of the drug: anti-neoplastic drug on expanded CD34+ cells, 24 h
Description: Three methods, more completely described in the following examples, were utilized for a determination of cell survival and ability to produce daughter cells of primary human neutrophil progenitors: (1) a FACS assay which determined the percent of live cells by size and granularity; (2) a colony forming assay which measured the number of CFU-GM progenitors (a specific early stage neutrophil progenitor); and (3) a cell-based ELISA which measured CD15 antigen the value of which was proportional to the number of neutrophil lineage cells. This assay allows evaluation of neutrophil progenitors (cells that can divide and produce daughter neutrophil-lineage cells) at multiple stages of differentiation.
Expanded CD34^+ stem cells were isolated as described in Example 2 and grown in complete growth media. The expanded CD34^+ cells were treated with DMSO or rolipram plus forskolin as previously described. […] After the treatment, the cells were counted, washed twice with 4 ml of HBSS supplemented with 2% FBS, and resuspended in complete growth media. The expression of CD15 antigen was used as a measure of the number of neutrophil lineage cells expanded from surviving progenitors of multiple stages of differentiation.
The cells were plated at a set number into 96-well plates in 100 μl volume per well of complete media. […] The plates were harvested at different time points by centrifuging at 450 G for 10 minutes at room temperature (RT) and the cells were washed several twice in HBSS by centrifugation of the plates. The cells were removed by suspension twice in HBSS with 5 mM EDTA with 100 μl per well and transfer of the total 200 μl volume to capture plates (Costar DNA-bind, #2498) that had been pretreated with 1% gluteraldehyde and stored (Warren et al., 1995 Stem Cells 13:167-174).
For CELISA, the preservative solution (PBS, 0.1% BSA, 0.1% azide) was removed from the capture plate and the wells were washed with 100 μl PBS. […] The plates were washed twice with 300 μl PBS/well and incubated with a secondary antibody (goat anti-mouse IgM-biotin, Sigma B-9265, 0.105 μg/well, 100 μl PBS with 5% goat sera) at RT for 60 min. After three to six 200 μl/well washes, strepavidin-horseradish peroxidase (Pierce 21126, 0.1 μg/well in a 1% solution of stable peroxide buffer, Pierce 34062) was added. The plates were incubated for ten minutes and washed three to six times with 200 μl/well. For the final detection step, the chemiluminescent reagent Supersignal® Ultra (Pierce 34075) prepared just prior to use by mixing equal parts of the luminol enhancer and the stable peroxide was added to the plates (100 μl per well) and gently mixed for five minutes at RT. The plates were read on a Wallace Victor II machine for one second for chemiluminescence at 425 nm.
The data from the Wallac Victor were transferred to Excel for analysis. Averages of replicate wells from treated cells were calculated along with standard error of the mean (sem) of the counts minus the background signal from replicate wells with media only (no cells).

[2] = tested on: specific early neutrophil progenitors (CFU-GMs); test: CFU-GM colony forming assay; assay type: cell-based, human; conditions: for number of CFU-GM colonies with increasing amounts of the drug: anti-neoplastic drug on expanded CD34+ cells, 24 h, colonies counted after 12 to 14 days
Description: Expanded CD34^+ cells, prepared according to the procedure of Example 2, were isolated and pretreated with DMSO or rolipram plus forskolin as described in Example 2. […] The cells were then plated in a semi solid growth medium for the growth of CFU-GMs following a published method with the exception that the G-CSF (10 ng/ml) was included in place of GM-CSF and erythropoietin (Dornsife, R E et al., Antimicrob Agents Chemother, 35: 322-328, (1991); Dornsife R E; Averett D R., Antimicrob Agents Chemother, 40(2): 514-519, (1996)). The CFU-GMs were counted after 12 to 14 days. The results are depicted in FIG. 3.

[3] = tested on: CCL64 mink lung epithelial cells; test: Protection of mink lung epithelial cells from paclitaxel, sulforhodamine B stain; assay type: cell-based; conditions: PDE4 inhibitor 1 μM plus forskolin 100 μM 24 h, then paclitaxel 10 nM 48 h
Description: CCL64 mink lung epithelial cells (ATCC #CCL-64) were grown in DMEM supplemented with 10% FBS and 1% penicillin-streptomycin and seeded into 96-well plates. After overnight incubation at 37° C. cells were treated with 100 μM forskolin in combination with each of the PDE4 inhibitors (1 μM). After 24 hours of treatment, paclitaxel was added to wells at various concentrations up to 10 nM. Time zero control plates were harvested by staining with Sulforhodamine B (Skehan P. et. al., (1990), J. Nat'l Cancer Inst 82:1107-12.) After an additional 48 hours of incubation at 37° C., the plates were harvested and stained with sulforhodamine B. The absorbance of the samples was read at the optical density of 562 nm. The no-drug controls were set to 100% and values were normalized to time zero control. As indicated in Example 8, cells were pre-treated with forskolin plus various PDE4 inhibitors (1 μM) and then challenged with paclitaxel at various concentrations. The sulforhodamine B signal from the cells was expressed as percent of control (no-drug, vehicle only). An increase in signal, indicating protection, ranged from 85% to 130% with the cells pre-treated with forskolin plus a particular PDE4 inhibitor and followed by a paclitaxel challenge at 10 nM.

[4] = tested on: human HT-29 colon tumor line; test: Tumor cell growth after chemoprotectant regimen and paclitaxel, sulforhodamine B; assay type: cell-based; conditions: forskolin 100 μM plus PDE4 inhibitor 1 μM, then paclitaxel 100 nM 24 h, versus DMSO
Description: (§1) The human tumor cell lines HT-29 (colon: ATCC #HTB 38), RKO (colon, ATCC #HTB 130), lines A549 (lung, ATCC #CCL 185), and MDA468 (breast, ATCC #HTB 132) were obtained from the American Type Culture Collection and maintained in DMEM containing 10% FBS. Tumor cells were grown at 37° C. in a humidified atmosphere of 5% CO2. Adherent tumor cells were seeded into 96 well plates and incubated for six hours to allow for attachment. After six hours the chemoprotectants forskolin (100 μM) plus rolipram (1 μM) or forskolin (100 μM) plus ariflo (1 μM) were added. After overnight incubation, paclitaxel (100 nM) was added for 24 hours. Cells were then washed free of chemoprotectants and paclitaxel, placed in fresh media, and grown for 5 days. Growth was measured daily using sulforhodamine B (Skehan P. et. al., (1990), J. Nat'l Cancer Inst 82:1107-12). The results are depicted in FIG. 8.

[5] = tested on: human A549 lung tumor line; test: as above; assay type: cell-based; conditions: for effect of chemoprotectant regimen on paclitaxel inhibition of tumor cell growth: forskolin 100 μM plus PDE4 inhibitor 1 μM, then paclitaxel 100 nM 24 h
Description: as §1

[6] = tested on: human RKO colon tumor line; test: as above; assay type: cell-based; conditions: forskolin 100 μM plus PDE4 inhibitor 1 μM, then paclitaxel 100 nM 24 h, versus DMSO
Description: as §1

[7] = tested on: expanded CD34+ stem cells; test: Flow cytometric (FACS) evaluation of surviving and apoptotic fractions of expanded CD34+ cells; assay type: cell-based, human
Description: A T-test analysis ([…], with application of either equal or unequal variance [difference in standard error of the mean (sem) < or >3-fold, respectively) was performed to compare between treatment groups to determine if statistically significant differences existed (MS Excel, SAS JMP).

normal progenitor cells = test: Cell based assays utilized herein, PDE4 inhibitor used alone; conditions: without forskolin

Structure (SMILES): CCC1=C[C@@H]2CN(C1)Cc1c([nH]c3ccccc13)[C@@](C(=O)OC)(c1cc3c(cc1OC)N(C)[C@H]1[C@@](O)(C(=O)OC)[C@H](OC(C)=O)[C@]4(CC)C=CCN5CC[C@]31[C@@H]54)C2 (relative stereo) [Vinorelbine, 3′,4′-didehydro-4′-deoxy-C′-norvincaleukoblastine [R-(R*,R*)-2,3-dihydroxybutanedioate (1:2)(salt)]]
- CD15 signal from the cell cultures with increasing concentrations of the drug [1]: decreased

Structure (SMILES): O=c1[nH]cc(F)c(=O)[nH]1 [5-fluorouracil, 5-fluoro-2,4-(1-H,3H) pyrimidinedione]
- number of CFU-GM colonies with increasing amounts of the drug [2]: decreased in a dose dependent manner
- CD15 signal from the cell cultures with increasing concentrations of the drug [1]: decreased

Structure (SMILES): COc1ccc([C@]2(C#N)CC[C@@H](C(=O)O)CC2)cc1OC1CCCC1 [Ariflo, cis-4-cyano-4-[3-(cyclopentyloxy)-4-methoxyphenyl]cyclohexane-1-carboxylic acid]
- Sulforhodamine B signal (survival) as percent of no-drug control [3]: 110%
- effect of chemoprotectant regimen on paclitaxel inhibition of tumor cell growth [4]: did not effect the inhibition of tumor cell growth
- effect of chemoprotectant regimen on paclitaxel inhibition of tumor cell growth [5]: no additional protection
- effect of chemoprotectant regimen on paclitaxel inhibition of tumor cell growth [6]: did not effect the inhibition of tumor cell growth

Structure (SMILES): COC(=O)c1cccc(-n2c(=O)n(Cc3ccccc3)c(=O)c3cccnc32)c1 [CP-77059]
- Sulforhodamine B signal (survival) as percent of no-drug control [3]: 85%

Structure (SMILES): CCCCn1c(=O)c2c(ncn2CC(C)=O)n(CCCC)c1=O [Denbufylline, 7-acetonyl,1,3dibutylxanthine]
- Sulforhodamine B signal (survival) as percent of no-drug control [3]: 95%

Structure (SMILES): COc1cc([C@@H]2c3cc4c(cc3[C@@H](O[C@@H]3O[C@@H]5CO[C@@H](C)O[C@H]5[C@H](O)[C@H]3O)[C@H]3COC(=O)[C@H]23)OCO4)cc(OC)c1O [Etoposide, 4′-demethyl-epipodophyllotoxin 9[4,6-0-(R)-ethylidene-β-D-glucopyranoside]]
- number of CFU-GM colonies with increasing amounts of the drug [2]: decreased in a dose dependent manner
- CD15 signal from the cell cultures with increasing concentrations of the drug [1]: decreased

Structure (SMILES): COC(=O)N1C[C@@H](c2ccc(OC)c(OC3CCCC3)c2)[C@](C)(C(C)=O)C1 [GI193600X]
- Sulforhodamine B signal (survival) as percent of no-drug control [3]: 120%

Structure (SMILES): CCn1c(=O)c2ccccc2n(-c2cccc([N+](=O)[O-])c2)c1=O [Nitraquazone]
- Sulforhodamine B signal (survival) as percent of no-drug control [3]: 115%

Structure (SMILES): CC(=O)O[C@H]1C(=O)[C@@]2(C)[C@H]([C@H](OC(=O)c3ccccc3)[C@]3(O)C[C@H](OC(=O)[C@H](O)[C@@H](NC(=O)c4ccccc4)c4ccccc4)C(C)=C1C3(C)C)[C@]1(OC(C)=O)CO[C@@H]1C[C@@H]2O [Paclitaxel, 5β,20-epoxy-1,2α,4,7β,10β,13α-hexa-hydroxytax-11-en-9-one 4,10-diacetate 2-benzoate 13-ester with (2R,3S)-N-benzoyl-3-phenylisoserine]
- surviving cell fraction ([7]; DMSO pretreatment only 24 h, then paclitaxel 30 nM 24 h): 45%
- surviving cell fraction ([7]; DMSO pretreatment only 24 h, then paclitaxel 100 nM 24 h): 27%
- surviving cell fraction ([7]; DMSO pretreatment only 24 h, then paclitaxel 300 nM 24 h): 23%
- surviving cell fraction ([7]; DMSO pretreatment only 24 h, then paclitaxel 600 nM 24 h): 18%
- number of CFU-GM colonies with increasing amounts of the drug [2]: did not exhibit a good dose response
- CD15 signal from the cell cultures with increasing concentrations of the drug [1]: decreased
- inhibition of tumor cell growth ([5]; paclitaxel 100 nM 24 h): not completely inhibited

Structure (SMILES): COc1ccc(C(=O)Nc2c(Cl)cncc2Cl)cc1OC1CCCC1 [Piclamilast, N-(3,5-dichloropyrid-4-yl)-3-cyclopentyloxy-4-methoxybenzamide]
- Sulforhodamine B signal (survival) as percent of no-drug control [3]: 130%

Structure (SMILES): O=c1c2cccnc2n(-c2cccc([N+](=O)[O-])c2)c(=O)n1Cc1ccncc1 [RS-25344]
- Sulforhodamine B signal (survival) as percent of no-drug control [3]: 105%

Structure (SMILES): COc1ccc(C2CNC(=O)C2)cc1OC1CCCC1 (stereo not shown) [Rolipram]
- apoptotic fraction in paclitaxel treated cells compared with DMSO pretreatment ([7]; pretreatment with rolipram plus forskolin): significantly reduced the apoptotic fraction
- surviving cell fraction ([7]; rolipram 1 μM plus forskolin 100 μM 24 h, then paclitaxel 30 nM 24 h): 86%
- surviving cell fraction ([7]; rolipram 1 μM plus forskolin 100 μM 24 h, then paclitaxel 100 nM 24 h): 81%
- surviving cell fraction ([7]; rolipram 1 μM plus forskolin 100 μM 24 h, then paclitaxel 300 nM 24 h): 63%
- surviving cell fraction ([7]; rolipram 1 μM plus forskolin 100 μM 24 h, then paclitaxel 600 nM 24 h): 59%
- Sulforhodamine B signal (survival) as percent of no-drug control [3]: 110%
- survival of CFU-GM progenitors ([2]; rolipram plus forskolin prior to 5-fluorouracil, etoposide or paclitaxel, versus DMSO): increased the survival of CFU-GM progenitors
- protective effect (normal progenitor cells): little protective effect
- effect of pretreatment on toxicity towards neutrophil progenitors compared to DMSO ([1]; rolipram plus forskolin, then carboplatin): no significant difference
- effect of pretreatment on toxicity towards neutrophil progenitors compared to DMSO ([1]; rolipram plus forskolin, then cisplatin): significantly increase the toxicity
- effect of pretreatment on toxicity towards neutrophil progenitors compared to DMSO ([1]; rolipram plus forskolin, then doxorubicin): significantly increase the toxicity
- CD15 signal after pretreatment versus DMSO ([1]; rolipram plus forskolin, then paclitaxel, 5-FU, etoposide, vinblastine, vinorelbine, methotrexate or topotecan, 99% confidence): increased the CD15 signal antigen to a statistically significant level
- effect of chemoprotectant regimen on paclitaxel inhibition of tumor cell growth [4]: did not effect the inhibition of tumor cell growth
- effect of chemoprotectant regimen on paclitaxel inhibition of tumor cell growth [5]: no additional protection
- effect of chemoprotectant regimen on paclitaxel inhibition of tumor cell growth [6]: did not effect the inhibition of tumor cell growth

Structure (SMILES): CC[C@]1(O)C[C@@H]2CN(CCc3c([nH]c4ccccc34)[C@@](C(=O)OC)(c3cc4c(cc3OC)N(C)[C@H]3[C@@](O)(C(=O)OC)[C@H](OC(C)=O)[C@]5(CC)C=CCN6CC[C@]43[C@@H]65)C2)C1 [Vinblastine, vincaleukoblastine sulfate]
- CD15 signal from the cell cultures with increasing concentrations of the drug [1]: decreased

Structure (SMILES): CN(Cc1cnc2nc(N)nc(N)c2n1)c1ccc(C(=O)N[C@@H](CCC(=O)O)C(=O)O)cc1 [methotrexate, N-[4[[(2,4-diamino-6-pteridinyl)methyl]methylamino]benzoyl]-L-glutamic acid]
- CD15 signal from the cell cultures with increasing concentrations of the drug [1]: decreased

Structure (SMILES): CC[C@@]1(O)C(=O)OCc2c1cc1n(c2=O)Cc2cc3c(CN(C)C)c(O)ccc3nc2-1 [topotecan, (S)-10-[(dimethylamino)methyl]-4-ethyl-4,9-dihydroxy-1H-pyrano[3′,4′,6,7]indolizino[1,2-b]quinoline-3,14(4H,12H)-dione monohydrochloride]
- CD15 signal from the cell cultures with increasing concentrations of the drug [1]: decreased
